Assay [1] concerns Glutenin 30-40 kDa. The assay is described as follows: Reductant specificity of glutenins, mBBr/SDS-PAGE. In kind it is biochemical, Triticum durum. The method, then:
(§1) For isolation of insoluble storage proteins, semolina (0.2 g) was extracted sequentially with 1 ml of the following solutions for the indicated times at 25° C.: (1) 50 mM Tris-HCl, pH 7.5 (20 min); (2) 70% ethanol (2 hr); and (3) 0.1 M acetic acid (2 hr). During extraction, samples were placed on an electrical rotator and, in addition, occasionally agitated with a vortex mixer. After extraction with each solvent, samples were centrifuged (12,000 rpm for 5 min) in an Eppendorf microfuge and, supernatant fractions were saved for analysis. In between each extraction, pellets were washed with 1 ml of water, collected by centrifugation as before and the supernatant wash fractions were discarded. By convention, the fractions are designated: (1) albumin/globulin; (2) gliadin; and (3) glutenin.
(§2) Reactions were carried out in 100 mM Tris-HCl buffer, pH 7.9. As indicated, 0.7 μg NTR and 1 μg thioredoxin (both from E. coli unless specified otherwise) were added to 70 μl of this buffer containing 1 mM NADPH and 10 μg of target protein.
(§3) SDS-polyacrylamide electrophoresis of the mBBr-derivatized samples was performed in 15% gels at pH 8.5 as described by Laemmli, U. K. (1970), Nature 227:680-685. Gels of 1.5 mm thickness were developed for 16 hr. at a constant current of 9 mA.
(§4) The Polaroid negatives of fluorescent gels and prints of wet protein stained gels were scanned with a laser densitometer (Pharmacia-LKB UltroScan XL). Fluorescence was quantified by evaluating peak areas after integration with GelScan XL software.

Assay [2] relates to Glutenin 60-110 kDa. The assay is described as follows: Reductant specificity of glutenins, mBBr/SDS-PAGE. In kind it is biochemical, Triticum durum. The method, then:
as §1, §2, §3, §4

In assay [3] the test system is dogs sensitized to cow's milk. The assay is described as follows: Skin tests, ED50 and relative allergenicity (Example 44). As to conditions: all dogs tested. In kind it is in vivo, dog. The procedure:
Reduction and Blocking of Protein Disutfide Bond. […] Following gel filtration with a Sephadex G-25 column (Amersham Pharmacia) to remove reductants, the reduced protein (less than 0.25 mg/ml) was incubated either without addition or with 10 mM oxidized glutathione (GSSG) or 10 mM cystamine for 3 days on ice. The mixtures were then subjected to a second gel filtration on a Sephadex G-25 column to remove excess GSSG and cystamine. If necessary, the resultant preparations were concentrated by ultrafiltration with Centricon YM-3 filter (Millipore). Heat treatment of NTS-reduced BLG was carried out for 1 hour at 55° C. after reduction at 4° C. overnight. Raw cow's milk (47 mg protein/ml) was reduced with 50 mM DTT and blocked with cystamine and GSSG as described above for BLG. Heated milk was prepared by incubation for 1 hour at 55° C. and gel filtration with A Sephadex G-25 column.
Skin Tests. The background of the dog colony, immunization schedule and procedure for skin testing have been previously described in Examples 36-39 and also in del Val et al., 1999, Buchanan et al., 1997, Ermel et al., 1997, Frick and Brooks, 1983, herein incorporated by reference. Here, 3 litters of the 7th generation designated 7FA, 7FB and 7FC were immunized with commercial preparations (Bayer) of cow's milk, soybean and other food extracts (wheat or barley and walnut, Brazil nut and peanut) and also ragweed pollen. BLG samples for testing were prepared in half-log dilutions with PBS; 100 μL of each dilution was injected intradermally on the dog's abdomen.
Estimation of Relative Allergenicity. Wheal area of each spot was plotted by the Lineweaver-Burk double-reciprocal plot to obtain the maximum wheal area. The log of the dose of BLG that effects a half-maximum of wheal area with the control sample, termed Effective Dose 50 (ED50), was calculated and used for statistical analysis. For simplification, ratio of the reciprocal of ED50 to that of the control sample is presented below as relative allergenicity.

Assay [4] concerns allergic dogs. Description: Skin tests with giant ragweed pollen extract. In kind it is in vivo, dog. The procedure:
Reduction of pollen proteins by the thioredoxin system. Giant ragweed allergen extract, purchased from Bayer Inc., was analyzed for protein by the Bradford assay using bovine γ-globulin as standard (Wong, J. H. et al. (1995) “Thioredoxin and seed proteins” Methods Enzymol 252:228-240). […] The extent of reduction was determined by the SDS-PAGE/monobromobimane procedure as previously described above and also as described by Wong et al. (Ibid.). Gels were visualized under U.V.
Skin tests. Procedures to measure the type I hypersensitivity reaction by skin tests in allergic […] were substantially the same to those previously described above (see, Examples 36, 37 and 39). In brief, Evans blue dye 0.5% (0.2 ml/kg) was injected intravenously 5 minutes prior to skin testing. Aliquots of 0.1 ml of pollen allergen extract were injected intradermally on ventral abdominal skin in half-log dilutions. Skin tests were read blindly by the same experienced blinded observer scoring two perpendicular diameters for each blue spot. Appropriate negative controls (diluted in PBS) were included for each animal tested.
Data analysis. The statistical significance of the skin test results showing the thioxedoxin-linked mitigation of pollen allergens was determined by paired one-tailed, t-tests. […] The t-tests were completed for each dilution series (0.07 to 219 ng allergen) at 0.05 level of significance on all sensitive dogs (df≅8).

For assay [5], the system named is trypsin. Description: Trypsin proteolysis of purified milk allergens. In kind it is biochemical. Conditions: 10 μg NTS reduced protein, 2 μg trypsin. The procedure: The analysis of the reduction was done using the mBBr/SDS-PAGE techniques. Further in this study, when 10 μg of an NTS reduced purified milk allergen protein, β-lactoglobulin (Sigma Chemical Co.), was treated with 2 μg of trypsin, proteolysis was 100% as compared with only 50% for the identically trypsin treated oxidized β-lactoglobulin. […] However, 10 μg of purified α-lactalbumin reduced by the NTS was proteolyzed 80% by trypsin. Also 10 μg of α-lactalbumin reduced by 0.8 μg of thioredoxin and 0.5 mM DTT was 100% proteolyzed by 2 μg of trypsin.

The results in this text go back to US20040091578A1 (priority 2001, published 2004).

Where two headings read alike, the source gives them in different places.

Regarding `N[C@@H](CCC(=O)N[C@@H](CS)C(=O)NCC(=O)O)C(=O)O` [Glutathione, glutathione, reference compound], the “Glutenin, % Relative Reduction, 30-40 kDa” value in assay [1] is given as 29%. Besides, in assay [2], the “Glutenin, % Relative Reduction, 60-110 kDa” value is recorded as 31%.
As to “NTS-reduced & heated: BLG heated for 1 hour at 55° C. following NTS-reduction at 4° C. overnight”, the “times less allergenic than native (control) BLG, from ED50” value in assay [3] was “about 5 times”.
Same read-out and setting: the result for “NTS/CYM: BLG treated with cystamine following NTS-reduction” reads “about 2.5 times”.
On the same count and under the same terms, the result for “NTS/GSSG: BLG treated with GSSG following NTS-reduction” reads “about 2.5 times”.
For “Thioredoxin: E. coli thioredoxin reduced by NADPH and NTR”, in assay [1] (thioredoxin (NTS) = 100), the “Glutenin, % Relative Reduction, 30-40 kDa” value came to 100%. In assay [2] (thioredoxin (NTS) = 100), the “Glutenin, % Relative Reduction, 60-110 kDa” value was determined as 100%. Also, the “Mitigation of skin test response” value is recorded as “Not Signiticant” in assay [4] (Allergen 0.07 ng); “Not Significant” in assay [4] (Allergen 0.22 ng); “Significant” in assay [4] (Allergen 0.66 ng); “Significant” in assay [4] (Allergen 2.2 ng); “Significant” in assay [4] (Allergen 6.6 ng); “Significant” in assay [4] (Allergen 22 ng). The “Mitigation of skin test response” value is recorded as “Significant” in assay [4] (Allergen 66 ng) and “Not Significant” in assay [4] (Allergen 219 ng, paired one tail t test, P 0.05).

B1: Glutaredoxin: E. coli glutaredoxin with NADPH, reduced glutathione and glutathione reductase (NGS) (protein, UniProt P68688 1-85, looked up)
Glutaredoxin 1: MQTVIFGRSGCPYCVRAKDLAEKLSNERDDFQYQYVDIRAEGITKEDLQQKAGKPVETVPQIFVDQQHIGGYTDFAAWVKENLDA
modifications: with NADPH, glutathione, glutathione reductase
Take B1: the “Glutenin, % Relative Reduction, 30-40 kDa” value in assay [1] (thioredoxin (NTS) = 100) was found to be 40%. Further, the “Glutenin, % Relative Reduction, 60-110 kDa” value in assay [2] (thioredoxin (NTS) = 100) was 50%.

B2: α-lactalbumin: purified milk allergen (Sigma) (protein, UniProt P00711 20-142, looked up)
Alpha-lactalbumin: EQLTKCEVFRELKDLKGYGGVSLPEWVCTTFHTSGYDTQAIVQNNDSTEYGLFQINNKIWCKDDQNPHSSNICNISCDKFLDDDLTDDIMCVKKILDKVGINYWLAHKALCSEKLDQWLCEKL
Regarding B2, the proteolysis by trypsin in assay [5] stood at 80%.
